Here are results for twelve compounds from US8410130B2, “Synthesis of 8H-3A-aza-cyclopenta [A ]indenes and 5,10-dihydropyrrolo[1,2-B]isoquinolines derivatives and their use as antitumor therapeutic agents” (Academia Sinica, priority 2007, dated 2013).

The subject of assay [1] is Human mammary carcinoma (MX-1) tumor cells. Briefly: In vitro cytotoxicity, sulforhodamine B (SRB) assay. Type of assay: cell-based. Conditions: 72-hr incubation. An excerpt:
(§1) Human colon carcinoma HCT-116 cells, human prostate adenocarcinoma PC-3 and adenocarcinoma SK-OV-3 cells were obtained from American Type Culture Collection (ATCC, Rockville, Md.). Human mammary carcinoma (MX-1) tumor cells were obtained from MSKCC cell bank. The CCRF-CEM human lymphoblastic leukemia cells and their vinblastine resistant subline (CCRF-CEM/VBL, 680-fold resistance in vitro) were obtained from Dr. William Beck of the University of Illinois, Chicago, and CCRF-CEM/Taxol (330-fold resistance in vitro). Resistant cells CCRF-CEM/taxol were produced by exposing the parent cells to increasing sublethal concentration (IC50-IC90) of paclitaxel for six months.
(§2) In preparation for in vitro cytotoxicity assays, cells were cultured at an initial density 2-5×10^4 cells per milliliter. They were maintained in a 5% CO2-humidified atmosphere at 37° C. in RPMI medium 1640 (GIBCO/BRL) containing penicillin (100 units/mL), streptomycin (100 μg/mL, GIBCO/BRL), and 5% heat-inactivated FBS. For cells grown in suspension (such as CCRF-CEM and its sublines), cytotoxicity was measured, by using XTT microculture method in 96-well microtiter plates (Scudiero D A et al., Cancer Res. 1988, 48, 4827-4833). For solid tumor cells growing in a monolayer (such as MX-1 and HCT-116), cytotoxicity of the drug was determined, in duplicate, in 96-well microtiter plates by using the sulforhodamine B method (Skehan P et al., J. Natl. Cancer Inst 1990, 82, 1107-1112). For both methods, the absorbance of each well was measured with a microplate reader (Power Wave XS, Bio-Tek, Winooski, Vt.) after 72-hr incubation as described previously (Chou T-C et al., Proc. Natl. Acad. Sci. USA 2001, 98, 8113-8118). Dose-effect relationship data from 6 to 7 concentrations of each drug, in duplicate, were analyzed by using a computer program (Chou T-C et al., ComboSyn, Inc., Paramus, N J. 2005) based on the median-effect principle and plot (Chou T-C et al., Adv. Enzyme Regul. 1984, 22, 27-55; Chou T-C, Pharmacol. Rev. 2006, 58, 621-681).
(§3) The IC50 is defined by the concentration required to inhibit tumor cell growth by 50%. […] The growth inhibition of the compounds disclosed herein against human lymphoblastic leukemic cells (CCRF-CEM) and its drug-resistant sublines (resistant to vinblastine and taxol, CCRF-CEM/VBL and CCRF-CEM/taxol, respectively) is also shown in Table 5. […] Thus, the compounds disclosed herein are effective against multiple drug resistant tumors.

The subject of assay [2] is Human colon carcinoma HCT-116 cells. The assay is described as above. In kind it is cell-based.
Text: as §1, §2, §3

In another assay the test system is CCRF-CEM/Taxol. Briefly: In vitro cytotoxicity, XTT assay, taxol resistant subline. In kind it is cell-based, human. Conditions: for IC50: XTT assay, 72-hr incubation; for fold of cross-resistant, CCRF-CEM/Taxol vs IC50 of the parent cell line: numbers in brackets.
Text: as §1, §2, §3

Another assay deals with CCRF-CEM/VBL. Briefly: In vitro cytotoxicity, XTT assay, vinblastine resistant subline. Type of assay: cell-based, human. As to conditions: for IC50: XTT assay, 72-hr incubation; for fold of cross-resistant, CCRF-CEM/VBL vs IC50 of the parent cell line: numbers in brackets.
Text: as §1, §2, §3

Assay [3] deals with CCRF-CEM human lymphoblastic leukemia cells. Briefly: In vitro cytotoxicity, XTT assay, 72-hr incubation. Type of assay: cell-based.
Text: as §1, §2, §3

Where [4] appears, read: Homo sapiens, HCT-116, 72-hr incubation.

Where two headings read alike, the source gives them in different places.

`OCc1c(CO)c(-c2ccc(F)c(F)c2)n2c1Cc1ccccc1C2` [DA-1112, [3-(3,4-Difluorophenyl)-2-hydroxymethyl-5,10-dihydropyrrolo[1,2-b]isoquinolin-1-yl]methanol]: the IC50 in assay [1] (Homo sapiens) amounted to 6670 nM; in assay [2] (setting [4]), 2920 nM; in the assay on CCRF-CEM/Taxol (Homo sapiens, CCRF-CEM), 745 nM; in the assay on CCRF-CEM/VBL (Homo sapiens, CCRF-CEM) it was 1010 nM; in assay [3] (Homo sapiens, CCRF-CEM), 1140 nM. For the same compound, the “fold of cross-resistant, CCRF-CEM/Taxol vs IC50 of the parent cell line” value (shortened to “fold of cross-resistant, CCRF-CEM/Taxol”) with CCRF-CEM/Taxol is “[0.66x]”. In the assay with CCRF-CEM/VBL, the “fold of cross-resistant, CCRF-CEM/VBL vs IC50 of the parent cell line” value (“fold of cross-resistant, CCRF-CEM/VBL” below) was “[0.89x]”.

On to `CNC(=O)OCc1c(COC(=O)NC)c(-c2ccc(F)c(F)c2)n2c1Cc1ccccc1C2` [DA-1113, methylcarbamic acid 3-(3,4-difluorophenyl)-2-methylcarbamoyloxymethyl-5,10-dihydropyrrolo[1,2-b]isoquinolin-1-methyl ester], for which the IC50 in assay [1] stood at 2710 nM; in assay [2] (72-hr incubation), 358 nM; in the assay on CCRF-CEM/Taxol it was 643 nM; in the assay with CCRF-CEM/VBL, 519 nM; in assay [3], 488 nM. The “fold of cross-resistant, CCRF-CEM/Taxol” value with CCRF-CEM/Taxol was “[1.32x]”. The “fold of cross-resistant, CCRF-CEM/VBL” value in the assay with CCRF-CEM/VBL was “[1.06x]”.

For the compound `OCc1c(CO)c(-c2ccc(Cl)cc2)n2c1Cc1ccccc1C2` [DA-1116, [3-(4-Chlorophenyl)-2-hydroxymethyl-5,10-dihydropyrrolo[1,2-b]isoquinolin-1-yl]methanol], the IC50 turned out to be 3270 nM in assay [1] (Homo sapiens); 2640 nM in assay [2] (setting [4]); 601 nM in the assay on CCRF-CEM/Taxol (Homo sapiens, CCRF-CEM); 543 nM in the assay on CCRF-CEM/VBL (Homo sapiens, CCRF-CEM); 600 nM in assay [3] (Homo sapiens, CCRF-CEM). Moreover, the “fold of cross-resistant, CCRF-CEM/Taxol” value in the assay on CCRF-CEM/Taxol is “[1.00x]”. Moreover, the “fold of cross-resistant, CCRF-CEM/VBL” value in the assay on CCRF-CEM/VBL was “[0.91x]”.

With `CNC(=O)OCc1c(COC(=O)NC)c(-c2ccc(Cl)cc2)n2c1Cc1ccccc1C2` [DA-1117, methylcarbamic acid 3-(4-chlorphenyl)-2-methylcarbamoyloxymethyl-5,10-dihydropyrrolo[1,2-b]isoquinolin-1-ylmethyl ester], the IC50 was 1170 nM in assay [1]; 356 nM in assay [2] (72-hr incubation); 216 nM with CCRF-CEM/Taxol; 208 nM in the assay on CCRF-CEM/VBL; 191 nM in assay [3]. In addition, in the assay on CCRF-CEM/Taxol, the “fold of cross-resistant, CCRF-CEM/Taxol” value was “[1.13x]”. Further, in the assay with CCRF-CEM/VBL, the “fold of cross-resistant, CCRF-CEM/VBL” value is “[1.09x]”.

Regarding `COc1ccccc1-c1c(CO)c(CO)c2n1-c1ccccc1C2` [DA-1123, (2-Hydroxymethyl-3-(2-methoxyphenyl)-8H-3a-aza-cyclopenta[a]inden-1-yl)methanol], the IC50 in assay [1] (Homo sapiens) was 8640 nM; in assay [2] (setting [4]) it was 13400 nM; in the assay on CCRF-CEM/Taxol (Homo sapiens, CCRF-CEM), 2680 nM; in the assay on CCRF-CEM/VBL (Homo sapiens, CCRF-CEM), 1900 nM; in assay [3] (Homo sapiens, CCRF-CEM), 1010 nM. For the same compound, the “fold of cross-resistant, CCRF-CEM/Taxol” value in the assay with CCRF-CEM/Taxol is “[2.68x]”. Moreover, the “fold of cross-resistant, CCRF-CEM/VBL” value in the assay on CCRF-CEM/VBL was “[1.89x]”.

As for `CNC(=O)OCc1c(COC(=O)NC)c(-c2ccc(OC)c(OC)c2)n2c1Cc1ccccc1-2` [DA-1125, Methylcarbamic acid 3-(3,4-dimethoxyphenyl)-2-methylcarbamoyloxymethyl-8H-3a-aza-cyclopenta[a]inden-1-ylmethyl ester], the IC50 in assay [1] (Homo sapiens) stood at 1840 nM; in assay [2] (setting [4]), 680 nM; in the assay on CCRF-CEM/Taxol (Homo sapiens, CCRF-CEM) it was 497 nM; in the assay on CCRF-CEM/VBL (Homo sapiens, CCRF-CEM), 374 nM; in assay [3] (Homo sapiens, CCRF-CEM), 350 nM. The “fold of cross-resistant, CCRF-CEM/Taxol” value in the assay on CCRF-CEM/Taxol was “[1.42x]”. In addition, the “fold of cross-resistant, CCRF-CEM/VBL” value in the assay with CCRF-CEM/VBL is “[1.07x]”.

Take `COc1cccc(OC)c1-c1c(CO)c(CO)c2n1-c1ccccc1C2` [DA-1126, (3-(2,6-Dimethoxyphenyl)-2-hydroxymethyl-8H-3a-aza-cyclopenta[a]inden-1-yl)methanol]: the IC50 in assay [1] (Homo sapiens) came to 25500 nM; in assay [2] (setting [4]) it was 43700 nM; in the assay on CCRF-CEM/Taxol (Homo sapiens, CCRF-CEM) it was 741 nM; with CCRF-CEM/VBL (Homo sapiens, CCRF-CEM), 251 nM; in assay [3] (Homo sapiens, CCRF-CEM) it was 8140 nM. The “fold of cross-resistant, CCRF-CEM/Taxol” value in the assay on CCRF-CEM/Taxol was “[0.09x]”. Also, in the assay with CCRF-CEM/VBL, the “fold of cross-resistant, CCRF-CEM/VBL” value is “[0.03x]”.

As for `CNC(=O)OCc1c(COC(=O)NC)c(-c2c(OC)cccc2OC)n2c1Cc1ccccc1-2` [DA-1127, Methylcarbamic acid 3-(2,6-dimethoxyphenyl)-2-methylcarbamoyloxymethyl-8H-3a-aza-cyclopenta[a]inden-1-ylmethyl ester], the concentration for half-maximal inhibition (IC50) in assay [1] (Homo sapiens) was 5480 nM; in assay [2] (setting [4]), 1110 nM; with CCRF-CEM/Taxol (Homo sapiens, CCRF-CEM), 616 nM; with CCRF-CEM/VBL (Homo sapiens, CCRF-CEM), 697 nM; in assay [3] (Homo sapiens, CCRF-CEM) it was 640 nM. Further, the “fold of cross-resistant, CCRF-CEM/Taxol” value with CCRF-CEM/Taxol was “[0.96x]”. Besides, in the assay on CCRF-CEM/VBL, the “fold of cross-resistant, CCRF-CEM/VBL” value was “[1.08x]”.

As to `COc1cc(-c2c(CO)c(CO)c3n2-c2ccccc2C3)cc(OC)c1OC` [DA-1128, (2-Hydroxymethyl-3-(3,4,5-trimethoxyphenyl)-8H-3a-aza-cyclopenta[a]inden-1-yl)-methanol], the IC50 in assay [1] (Homo sapiens) is 17600 nM; in assay [2] (setting [4]) it was 30600 nM; with CCRF-CEM/Taxol (Homo sapiens, CCRF-CEM), 1040 nM; in the assay with CCRF-CEM/VBL (Homo sapiens, CCRF-CEM), 1140 nM; in assay [3] (Homo sapiens, CCRF-CEM), 2050 nM. Besides, the “fold of cross-resistant, CCRF-CEM/Taxol” value in the assay with CCRF-CEM/Taxol is “[0.50x]”. For the same compound, the “fold of cross-resistant, CCRF-CEM/VBL” value in the assay with CCRF-CEM/VBL is “[0.56x]”.

With `CNC(=O)OCc1c(COC(=O)NC)c(-c2cc(OC)c(OC)c(OC)c2)n2c1Cc1ccccc1-2` [DA-1129, Methylcarbamic acid 3-(3,4,5-trimethoxyphenyl)-2-methylcarbamoyloxymethyl-8H-3a-aza-cyclopenta[a]inden-1-ylmethyl ester], the IC50 in assay [1] (Homo sapiens) was found to be 7250 nM; in assay [2] (setting [4]), 1830 nM; in the assay on CCRF-CEM/Taxol (Homo sapiens, CCRF-CEM) it was 14300 nM; with CCRF-CEM/VBL (Homo sapiens, CCRF-CEM), 8400 nM; in assay [3] (Homo sapiens, CCRF-CEM), 11800 nM. For the same compound, in the assay on CCRF-CEM/Taxol, the “fold of cross-resistant, CCRF-CEM/Taxol” value is “[1.21x]”. The “fold of cross-resistant, CCRF-CEM/VBL” value in the assay with CCRF-CEM/VBL was “[0.71x]”.

Turning to `COc1ccc(-c2c(CO)c(CO)c3n2-c2ccc(OC)cc2C3)cc1` [DA-1130, (2-hydroxymethyl-6-methoxy-3-(4′-methoxyphenyl)-8H-3a-aza-cyclopenta[a]inden-1-yl)methanol], the IC50 in assay [1] came to 1520 nM; in assay [2] (72-hr incubation), 610 nM; with CCRF-CEM/Taxol, 130 nM; in the assay on CCRF-CEM/VBL it was 61 nM; in assay [3] it was 118 nM. In the assay with CCRF-CEM/Taxol, the “fold of cross-resistant, CCRF-CEM/Taxol” value is “[1.10x]”. Moreover, in the assay with CCRF-CEM/VBL, the “fold of cross-resistant, CCRF-CEM/VBL” value is “[0.52x]”.

Regarding `CNC(=O)OCc1c(COC(=O)NC)c(-c2ccc(OC)cc2)n2c1Cc1cc(OC)ccc1-2` [DA-1131, methylcarbamic acid 6-methoxy-3-(4-methoxyphenyl)-2-methylcarbamoyl-oxymethyl-8H-3a-aza-cyclopenta[a]inden-1-ylmethyl ester], the IC50 in assay [1] (Homo sapiens) turned out to be 878 nM; in assay [2] (setting [4]), 455 nM; with CCRF-CEM/Taxol (Homo sapiens, CCRF-CEM), 96.2 nM; in the assay with CCRF-CEM/VBL (Homo sapiens, CCRF-CEM), 63.9 nM; in assay [3] (Homo sapiens, CCRF-CEM) it was 62 nM. For the same compound, the “fold of cross-resistant, CCRF-CEM/Taxol” value in the assay with CCRF-CEM/Taxol was “[1.55x]”. Further, the “fold of cross-resistant, CCRF-CEM/VBL” value in the assay on CCRF-CEM/VBL is “[1.03x]”.
